pIC50: −log10 of the molar value. Values after ≈ are worked out from the molar mass of the structure shown. Read-outs that look alike come from different tables or passages of the source.
Tests used:
CYP 3A4 = target: T1, CYP 3A4 (Homo sapiens, UniProt P08684); assay: P450 3A4 assay in human liver microsomes; assay type: in vitro ADME; conditions: for pIC50: probe substrate testosterone
T1 construct: Incubation mixtures in duplicate contain pooled human liver microsome (0.1 mg/mL); from tissue; host or cells: pooled human liver microsomes
T1 sequence (P08684 whole entry): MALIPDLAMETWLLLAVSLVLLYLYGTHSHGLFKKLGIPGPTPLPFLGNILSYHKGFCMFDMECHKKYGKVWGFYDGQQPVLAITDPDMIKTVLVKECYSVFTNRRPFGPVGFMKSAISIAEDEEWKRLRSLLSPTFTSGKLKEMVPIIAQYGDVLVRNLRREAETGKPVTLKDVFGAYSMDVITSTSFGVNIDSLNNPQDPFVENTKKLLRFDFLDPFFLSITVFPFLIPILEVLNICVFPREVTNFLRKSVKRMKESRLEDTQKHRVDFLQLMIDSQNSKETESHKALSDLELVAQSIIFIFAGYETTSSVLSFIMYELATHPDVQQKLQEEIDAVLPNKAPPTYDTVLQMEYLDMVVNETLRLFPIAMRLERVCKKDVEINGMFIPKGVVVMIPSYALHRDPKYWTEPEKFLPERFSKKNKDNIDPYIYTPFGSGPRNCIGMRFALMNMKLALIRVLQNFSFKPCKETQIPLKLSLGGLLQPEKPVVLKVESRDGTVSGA
Method: The final concentrations of DMSO and acetonitrile were equal or less than 0.1%.
The column temperature was maintained at ambient temperature (25° C.). […] The flow rate was maintained at 0.6 mL/min.

[1] = Rate of metabolism in rat whole blood; assay type: in vitro ADME; conditions: for rate of metabolism (k) in Rat whole blood: 1.0 μM, 37° C., 0-2 h
Method: A Representative Number of Compounds were Tested in Rat Whole Blood to Measure Rate of Metabolism.
Preparation of Stock Solutions: Stock solution of test compound was provided in 100% DMSO. The stock solution for each compound was diluted into 500 μM with a mixture of acetonitrile: PBS buffer (2:8) and then diluted into rat blood (pH 7.4) to achieve a final concentration of 1.0 μM.
Incubation: 1.0 μM of test compound in duplicate was incubated in blood at 37° C. Aliquots of 50 μL sample were collected at 0 h, 0.25 h, 0.5 h, 1 h, and 2 h.
Sample preparation: Reactions were terminated at various time points (0, 0.25, 0.5, 1, 2 h) by adding 150 μL of ice-cold acetonitrile containing an internal standard. Centrifuge the plate (4000 rpm, 15 min). 100 μL of supernatants were transferred into a daughter plate containing 200 μL of H2O and 0.1% formic acid (v/v) in each well. The samples were analyzed with UPLC-MS/MS.
Data analysis: The peak area ratio of test compound to internal standard is plotted as a percentage of the relevant zero time point control (% Remained) for each reaction. The rate of metabolism (k) is the slope of the linear regression from log percentage remaining versus incubation time. The T½ is calculated as −0.693/k.

[2] = Solubility measurement (HPLC); assay type: physicochemical; conditions: for solubility at 30 min: aqueous buffer, thermodynamic from solid, 25° C.
Method: The compound was diluted with acetonitrile to 100 mL.
The solution was shook for 2 minutes and left for 30 minutes at 25° C. After standing for 30 minutes, precipitate was formed in the bottom of the EP. The solutions was filtered through 0.2 μm membrane filter, and then diluted by 50 times with water.
The standard and sample solutions were injected into the HPLC on a Shim-Pack CLC-ODS C18 column (150 mm×6.0 mm, 5 um) with the same volume. The mobile phase consisted of acetonitrile with 2% trichloromethane-20 mM KH2PO4 buffer (pH=7.0) at a flow rate of 1 mL/minutes (40:60). The detection wavelength is at 264 nm. Calculation: solubility of sample=the concentration of standard×Area of sample×50/Area of standard.

HCC827 Cell = assay: Cell proliferation assay (MTT); assay type: cell-based; conditions: Homo sapiens, 72 hours treatment
Method: (§1) A Representative Number of Compounds were Assayed Against Different Cancer Cell Lines Such as HCC827 and NCI-H69 Using the Cell Proliferation Assays:
(§2) Cell Proliferation Assays:
(§3) 1. 5×10^3 cells per well in 100 μl of medium were seeded in 96-well plate, while the medium here contained 5% FBS.
(§4) 2. 24 hours later, 100 μl fresh medium was added with various concentrations of compounds into each well, while the medium here was free of FBS.
(§5) 3. After the cells were treated with compounds for 72 hours, 20 μl MTT (5 mg/ml) was added into each well, and then the assay plate was incubated at 37° C. for 4 more hours.
(§6) 4. The assay plate was centrifuged at 800 g for 10 min. The medium was aspirated, 150 μl DMSO was added into each well. The plate was gently shaken for 10 min.
(§7) 5. The absorbance at 570 nm was measured on the plate reader.

NCI-H69 Cell = assay: Cell proliferation assay (MTT); assay type: cell-based; conditions: Homo sapiens, 72 hours treatment
Method: as §1, §2, §3, §4, §5, §6, §7

[3] = target: T2, EGFR(L747-E749del, A750P) (Homo sapiens, UniProt P00533, A750P/DEL747-749); assay: In vitro kinase assay (kinase-tagged phage, affinity beads, qPCR); assay type: binding
T2 construct: made in house; host or cells: E. coli BL21-derived host (T7 phage) or HEK-293 cells
T2 sequence (P00533 with tags, fused parts or gaps DEL747-749/A750P): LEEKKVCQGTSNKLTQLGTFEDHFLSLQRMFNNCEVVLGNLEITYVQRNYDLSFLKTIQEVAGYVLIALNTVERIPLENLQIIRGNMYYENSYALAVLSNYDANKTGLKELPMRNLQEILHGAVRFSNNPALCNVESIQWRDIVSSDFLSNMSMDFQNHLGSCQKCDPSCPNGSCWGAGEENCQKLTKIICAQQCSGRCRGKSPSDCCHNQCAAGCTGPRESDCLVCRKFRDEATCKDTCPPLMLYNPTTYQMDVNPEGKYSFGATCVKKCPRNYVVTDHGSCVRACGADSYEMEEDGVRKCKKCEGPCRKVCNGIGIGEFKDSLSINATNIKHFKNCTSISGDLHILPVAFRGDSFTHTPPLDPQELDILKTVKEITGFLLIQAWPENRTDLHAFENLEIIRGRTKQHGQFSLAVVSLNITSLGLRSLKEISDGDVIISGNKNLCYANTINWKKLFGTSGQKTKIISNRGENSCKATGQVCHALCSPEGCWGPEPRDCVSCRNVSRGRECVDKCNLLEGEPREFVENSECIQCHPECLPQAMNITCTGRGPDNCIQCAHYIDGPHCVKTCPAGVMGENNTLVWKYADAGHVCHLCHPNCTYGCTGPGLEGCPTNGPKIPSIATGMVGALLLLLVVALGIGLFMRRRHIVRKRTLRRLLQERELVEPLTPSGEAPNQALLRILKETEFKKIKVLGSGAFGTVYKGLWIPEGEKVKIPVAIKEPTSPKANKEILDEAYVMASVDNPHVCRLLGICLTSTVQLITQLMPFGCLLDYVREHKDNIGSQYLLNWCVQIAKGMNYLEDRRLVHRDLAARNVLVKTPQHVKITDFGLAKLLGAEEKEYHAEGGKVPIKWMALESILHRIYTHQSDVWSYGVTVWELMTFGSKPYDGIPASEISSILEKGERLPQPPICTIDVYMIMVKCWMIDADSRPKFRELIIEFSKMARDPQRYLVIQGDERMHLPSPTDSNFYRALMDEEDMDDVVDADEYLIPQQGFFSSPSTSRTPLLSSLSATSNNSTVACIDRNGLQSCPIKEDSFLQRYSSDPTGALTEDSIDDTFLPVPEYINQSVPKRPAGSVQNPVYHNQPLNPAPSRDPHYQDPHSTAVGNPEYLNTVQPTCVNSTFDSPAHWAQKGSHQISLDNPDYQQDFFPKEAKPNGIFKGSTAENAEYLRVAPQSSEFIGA
Method: (§8) An In Vitro Assay which Determines the Ability of a Test Compound to Inhibit Kinase:
(§9) Kinase-tagged T7 phage strains were prepared in an E. coli host derived from the BL21 strain. E. coli were grown to log-phase and infected with T7 phage and incubated with shaking at 32° C. until lysis. The lysates were centrifuged and filtered to remove cell debris. The remaining kinases were produced in HEK-293 cells and subsequently tagged with DNA for qPCR detection. Streptavidin-coated magnetic beads were treated with biotinylated small molecule ligands for 30 minutes at room temperature to generate affinity resins for kinase assays. The liganded beads were blocked with excess biotin and washed with blocking buffer (SeaBlock (Pierce), 1% BSA, 0.05% Tween 20, 1 mM DTT) to remove unbound ligand and to reduce non-specific binding. […] All reactions were performed in polystyrene 96-well plates in a final volume of 0.135 ml. […] The kinase concentration in the eluates was measured by qPCR.

ERBB4 = target: T3, ERBB4 (Homo sapiens, UniProt Q15303); assay: as above; assay type: binding; conditions: Table A
T3 construct: made in house; host or cells: E. coli BL21-derived host (T7 phage) or HEK-293 cells
T3 sequence (Q15303 26-1308): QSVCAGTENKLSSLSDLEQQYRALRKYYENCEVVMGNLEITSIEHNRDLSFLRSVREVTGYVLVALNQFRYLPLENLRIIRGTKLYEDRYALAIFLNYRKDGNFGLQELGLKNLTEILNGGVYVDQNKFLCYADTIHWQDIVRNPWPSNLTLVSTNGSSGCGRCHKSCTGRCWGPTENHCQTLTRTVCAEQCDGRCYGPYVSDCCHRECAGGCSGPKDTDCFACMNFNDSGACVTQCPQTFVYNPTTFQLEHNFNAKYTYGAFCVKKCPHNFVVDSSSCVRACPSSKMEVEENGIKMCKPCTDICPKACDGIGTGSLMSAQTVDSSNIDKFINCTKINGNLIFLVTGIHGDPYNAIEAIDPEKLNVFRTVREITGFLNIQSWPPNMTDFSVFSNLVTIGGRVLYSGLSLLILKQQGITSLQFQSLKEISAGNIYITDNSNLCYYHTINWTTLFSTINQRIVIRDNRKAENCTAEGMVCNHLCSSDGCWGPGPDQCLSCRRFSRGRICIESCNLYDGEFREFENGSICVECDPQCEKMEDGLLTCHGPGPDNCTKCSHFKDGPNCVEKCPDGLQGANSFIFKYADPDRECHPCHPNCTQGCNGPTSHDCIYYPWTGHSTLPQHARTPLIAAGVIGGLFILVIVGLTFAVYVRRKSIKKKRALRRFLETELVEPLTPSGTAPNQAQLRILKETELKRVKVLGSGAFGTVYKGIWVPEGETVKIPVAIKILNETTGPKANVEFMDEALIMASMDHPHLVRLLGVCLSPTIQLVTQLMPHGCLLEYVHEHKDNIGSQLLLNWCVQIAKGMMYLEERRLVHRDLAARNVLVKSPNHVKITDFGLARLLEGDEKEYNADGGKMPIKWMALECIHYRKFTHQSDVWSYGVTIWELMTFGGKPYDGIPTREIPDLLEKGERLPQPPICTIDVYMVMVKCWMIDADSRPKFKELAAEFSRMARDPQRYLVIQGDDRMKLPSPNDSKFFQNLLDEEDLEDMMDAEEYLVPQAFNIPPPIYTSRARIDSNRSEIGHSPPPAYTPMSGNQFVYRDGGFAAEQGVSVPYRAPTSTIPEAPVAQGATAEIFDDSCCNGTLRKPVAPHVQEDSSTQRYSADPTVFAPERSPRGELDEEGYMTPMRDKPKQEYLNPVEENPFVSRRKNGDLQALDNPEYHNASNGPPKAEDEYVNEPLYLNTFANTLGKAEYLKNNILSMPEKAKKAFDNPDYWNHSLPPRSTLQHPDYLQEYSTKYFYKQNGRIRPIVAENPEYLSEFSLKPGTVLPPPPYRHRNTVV
Method: as §8, §9

[4] = pH 7.0 buffer solution (20 mM), pH 7.0 buffer (20 mM), read-out: Solubility at pH 7.0
[5] = pH 10.0 buffer solution (20 mM), pH 10.0 buffer (20 mM), read-out: Solubility at pH 10.0

## CC(=O)Nc1ncc2cc1O[C@H](C)c1cc(F)ccc1C(=O)N(C)Cc1nn(C)c(C#N)c1-2 [Compound 10, (10R)-7-acetamido-12-fluoro-2,10,16-trimethyl-15-oxo-10,15,16,17-tetrahydro-2H-8,4-(metheno)pyrazolo[4,3-h][2,5,11]-benzoxadiazacyclotetradecine-3-carbonitrile]
CYP 3A4
  pIC50: 4.85
[1]
  rate of metabolism (k) in Rat whole blood: 0.07435

## C[C@H]1Oc2cc(cnc2N)-c2c(nn(C)c2C#N)CN(C)C(=O)c2ccc(F)cc21 [Compound A, (10R)-7-amino-12-fluoro-2,10,16-trimethyl-15-oxo-10,15,16,17-tetrahydro-2H-8,4-(metheno)pyrazolo[4,3-h][2,5,11]-benzoxadiazacyclotetradecine-3-carbonitrile, reference compound]
[2]; [4]
  solubility at 30 min: 29 µg/mL (≈ 71.4 µM)
[2]; [5]
  solubility at 30 min: 28 µg/mL (≈ 68.9 µM)
CYP 3A4
  Cytochrome P450 3A4 inhibition (DDI risk class): moderate (3 μM<IC50<10 μM CYP inhibition moderate)
[1]
  rate of metabolism (k) in Rat whole blood: −0.07473

## C[C@H]1Oc2cc(cnc2NC(=O)CN)-c2c(nn(C)c2C#N)CN(C)C(=O)c2ccc(F)cc21 [Compound 6, (10R)-7-(2-aminoacetyl)amino-12-fluoro-2,10,16-trimethyl-15-oxo-10,15,16,17-tetrahydro-2H-8,4-(metheno)pyrazolo[4,3-h][2,5,11]-benzoxadiazacyclotetradecine-3-carbonitrile]
HCC827 Cell
  pIC50: 4.18
NCI-H69 Cell
  pIC50: 4.11
[3]
  inhibitor potency for mutant EGFR (L747-E749del, A750P): 0.42 µM
[3]; mutant EGFR, Table A
  Kinase Inhibition EGFR(L747-E749del, A750P): 0.4 µM
ERBB4
  Kinase Inhibition ERBB4: 5.7 µM
[2]; pH 7.0, comparison in words
  solubility compared with compound A at pH=7.0: much higher solubility
[2]; [4]
  solubility at 30 min: 91 µg/mL (≈ 196 µM)
[2]; [5]
  solubility at 30 min: 36 µg/mL (≈ 77.7 µM)
CYP 3A4
  pIC50: 5.00
[1]
  rate of metabolism (k) in Rat whole blood: 0.6169
[1]; rat whole blood, comparison in words
  K value compared with PF-06463922 and Compound 10: much larger K value
